{
  "source": "paper PMC10112232",
  "about": "“Comparison of Toxicities among Different Bumped Kinase Inhibitor Analogs for Treatment of Cryptosporidiosis” (Antimicrobial Agents and Chemotherapy, 2023)",
  "key": {"[1]": {"experiment": "Aqueous solubility", "format": "physicochemical", "text": "TABLE 1 In vitro properties of bumped kinase inhibitors^a | column: Solubility at pH 2 (μM); Solubility at pH 6.5 (μM)"}, "[2]": {"target": "human tyrosine kinase SRC (HsSRC) (Homo sapiens, UniProt P12931)", "sequence (P12931 whole entry)": "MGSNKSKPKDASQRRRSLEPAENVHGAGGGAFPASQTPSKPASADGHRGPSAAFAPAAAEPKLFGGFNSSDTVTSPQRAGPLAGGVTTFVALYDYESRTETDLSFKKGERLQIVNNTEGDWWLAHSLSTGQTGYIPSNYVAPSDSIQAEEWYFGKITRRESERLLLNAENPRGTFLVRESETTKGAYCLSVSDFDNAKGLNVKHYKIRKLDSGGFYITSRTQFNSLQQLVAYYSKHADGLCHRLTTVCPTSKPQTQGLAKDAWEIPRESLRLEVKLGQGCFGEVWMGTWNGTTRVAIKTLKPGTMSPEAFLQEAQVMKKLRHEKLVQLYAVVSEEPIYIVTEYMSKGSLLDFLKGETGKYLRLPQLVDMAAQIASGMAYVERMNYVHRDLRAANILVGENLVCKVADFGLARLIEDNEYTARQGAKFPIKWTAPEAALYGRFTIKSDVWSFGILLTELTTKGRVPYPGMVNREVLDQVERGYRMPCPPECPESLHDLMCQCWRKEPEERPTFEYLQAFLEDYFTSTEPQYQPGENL", "experiment": "In vitro inhibition of HsSRC", "format": "biochemical", "conditions": "read-out: HsSR IC50", "text": "(§1) Methods for synthesis of BKIs ([17], [23]), efficacy against Nluc expressing C. parvum in infected adult IFN-γ KO mice ([6], [9]), in vivo mouse GI tract tissue exposure by LC/MS-MS analysis ([18], [28]), PK analysis of mouse plasma and brain tissue BKI concentrations by LC/MS-MS analysis ([29]), in vivo rat and dog cardiotoxicity screen ([30]), efficacy against IOWA-II strain C. parvum in infected neonatal calves ([13]), efficacy against C. hominis in infected piglets ([12]), in vitro inhibition of C. parvum CDPK1 (CpCDPK1) and human tyrosine kinase SRC (HsSRC) activity ([31]), in vitro inhibition of hERG ([32]), Nluc expressing C. parvum in vitro growth inhibition in infected HCT-8 cells ([6]), in vitro cytotoxicity in CRL-8155 and HepG2 cells ([29]), and mouse locomotor activity box ([33], [34]) have all been previously described. Analytes were measured by LC/MS-MS on an Acquity ultra performance liquid chromatography (UPLC) system in tandem with a Xevo TQ-S mass spectrometer (Waters, Milford, MA, USA)."}, "[3]": {"experiment": "In vitro cytotoxicity in CRL-8155 cells", "format": "cell-based", "conditions": "human", "text": "as §1"}, "[4]": {"tested_on": "Nluc expressing C. parvum", "experiment": "Nluc expressing C. parvum in vitro growth inhibition in infected HCT-8 cells", "format": "cell-based", "conditions": "Cryptosporidium parvum", "text": "as §1"}, "[5]": {"experiment": "In vitro cytotoxicity in HepG2 cells", "format": "cell-based", "conditions": "human", "text": "as §1"}, "[6]": {"target": "T1, C. parvum calcium dependent protein kinase 1 (CpCDPK1) (Cryptosporidium parvum, UniProt A3FQ16)", "T1 sequence (A3FQ16 1-538)": "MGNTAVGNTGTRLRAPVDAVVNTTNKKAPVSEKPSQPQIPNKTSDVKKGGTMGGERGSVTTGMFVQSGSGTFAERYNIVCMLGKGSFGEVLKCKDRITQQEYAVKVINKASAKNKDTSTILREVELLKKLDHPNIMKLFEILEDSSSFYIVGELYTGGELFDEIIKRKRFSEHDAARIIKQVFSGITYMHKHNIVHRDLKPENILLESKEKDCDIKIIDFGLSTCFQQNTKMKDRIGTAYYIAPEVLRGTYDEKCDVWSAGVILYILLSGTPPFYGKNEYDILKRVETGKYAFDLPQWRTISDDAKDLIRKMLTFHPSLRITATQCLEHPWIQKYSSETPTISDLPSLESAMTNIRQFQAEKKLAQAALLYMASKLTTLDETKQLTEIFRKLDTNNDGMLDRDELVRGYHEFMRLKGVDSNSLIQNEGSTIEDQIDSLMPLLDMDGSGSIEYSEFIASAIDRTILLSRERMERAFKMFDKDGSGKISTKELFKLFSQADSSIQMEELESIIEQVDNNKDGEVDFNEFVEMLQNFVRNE", "experiment": "In vitro inhibition of CpCDPK1", "format": "biochemical", "text": "as §1"}, "[7]": {"target": "hERG (Homo sapiens, UniProt Q12809)", "sequence (Q12809 whole entry)": "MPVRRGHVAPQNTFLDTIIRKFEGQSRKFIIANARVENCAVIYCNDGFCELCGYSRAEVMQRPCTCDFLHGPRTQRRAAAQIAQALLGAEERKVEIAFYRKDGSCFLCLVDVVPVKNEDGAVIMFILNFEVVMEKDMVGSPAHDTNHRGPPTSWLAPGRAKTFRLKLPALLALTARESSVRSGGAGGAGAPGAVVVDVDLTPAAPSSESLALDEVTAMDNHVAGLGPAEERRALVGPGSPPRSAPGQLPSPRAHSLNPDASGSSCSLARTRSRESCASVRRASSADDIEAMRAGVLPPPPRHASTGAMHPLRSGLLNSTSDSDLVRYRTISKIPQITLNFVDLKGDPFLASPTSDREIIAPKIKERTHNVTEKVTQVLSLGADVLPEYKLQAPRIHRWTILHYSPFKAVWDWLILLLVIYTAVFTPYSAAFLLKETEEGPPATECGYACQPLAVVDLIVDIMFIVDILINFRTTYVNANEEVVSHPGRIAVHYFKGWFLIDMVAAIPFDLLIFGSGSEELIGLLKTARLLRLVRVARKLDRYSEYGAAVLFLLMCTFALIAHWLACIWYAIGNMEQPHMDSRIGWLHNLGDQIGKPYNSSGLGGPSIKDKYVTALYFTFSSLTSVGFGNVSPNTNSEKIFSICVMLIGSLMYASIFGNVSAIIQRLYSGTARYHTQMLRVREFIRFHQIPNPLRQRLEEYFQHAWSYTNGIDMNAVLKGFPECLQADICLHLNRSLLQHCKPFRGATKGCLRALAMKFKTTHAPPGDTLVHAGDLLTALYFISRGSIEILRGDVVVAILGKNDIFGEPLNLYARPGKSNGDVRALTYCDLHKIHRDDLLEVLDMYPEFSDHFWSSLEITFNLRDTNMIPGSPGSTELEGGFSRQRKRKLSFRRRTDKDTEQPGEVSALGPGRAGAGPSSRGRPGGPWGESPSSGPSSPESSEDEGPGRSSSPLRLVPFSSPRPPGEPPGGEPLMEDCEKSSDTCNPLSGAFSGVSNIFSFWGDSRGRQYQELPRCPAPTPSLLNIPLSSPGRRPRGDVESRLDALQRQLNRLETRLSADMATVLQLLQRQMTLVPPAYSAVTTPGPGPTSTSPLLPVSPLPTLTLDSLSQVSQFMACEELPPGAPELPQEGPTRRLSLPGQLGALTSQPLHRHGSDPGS", "conditions": "cited from earlier work"}, "[8]": {"conditions": "rat, in vivo; cited from earlier work"}, "[9]": {"experiment": "Cardiovascular testing in anesthetized dogs", "format": "in vivo, dog", "conditions": "dogs (data not shown)", "text": "as §1"}, "[10]": {"tested_on": "Cryptosporidium", "design": "method as in PMID 12423984, PMID 11398117, PMID 26568906", "conditions": "malnourished children (subtracting placebo efficacy); cited from earlier work"}},
  "note": "Where two headings read alike, the source gives them in different places.",
  "data": [
    {"compound": "CC(C)(CCO)n1nc(-c2ccc3cc(O)ccc3c2)c(C(N)=O)c1N", "note": "[1770-M5]", "values": [
      {"measurement": "solubility", "setting": "[1]; aqueous medium at pH 2, pH 2, simulated gastric fluid, read-out: Solubility at pH 2", "result": 89, "unit": "µM"},
      {"measurement": "solubility", "setting": "[1]; aqueous medium at pH 6.5, pH 6.5, aqueous buffer, read-out: Solubility at pH 6.5", "result": "> 100", "unit": "µM"},
      {"measurement": "IC50", "setting": "[2]", "result": 5.4, "unit": "µM"},
      {"measurement": "CC50", "setting": "[3]", "result": "> 80", "unit": "µM"},
      {"measurement": "EC50", "setting": "[4]", "result": 2.1, "unit": "µM"},
      {"measurement": "CC50", "setting": "[5]", "result": "> 80", "unit": "µM"},
      {"measurement": "IC50", "setting": "[6]", "result": 0.018, "unit": "µM"}
    ]},
    {"compound": "CCOc1ccc2cc(-c3nn(CC4CCN(C)CC4)c4ncnc(N)c34)ccc2c1", "note": "[BKI-1294]", "values": [
      {"measurement": "inhibition of hERG in vitro", "setting": "[7]", "result": "submicromolar range"}
    ]},
    {"compound": "CCOc1ccc2cc(-c3nn(CC4CCN(C)CC4)c4ncnc(N)c34)ccc2n1", "note": "[BKI-1369]", "values": [
      {"measurement": "cardiotoxicity in vivo", "setting": "[8]", "result": "Cardiotoxicity was additionally seen"},
      {"measurement": "cardiotoxicity in vivo", "setting": "[9]", "result": "Cardiotoxicity was additionally seen"},
      {"measurement": "cardiotoxicity in the in vitro hERG assay", "setting": "[7]", "result": "Cardiotoxicity was additionally seen"}
    ]},
    {"compound": "CC(=O)Oc1ccccc1C(=O)Nc1ncc([N+](=O)[O-])s1", "note": "[Nitazoxanide]", "values": [
      {"measurement": "efficacy", "setting": "[10]", "result": "about 30%"}
    ]}
  ]
}
